Measured values as given in PMC2866155 (Chemical biology & drug design, 2009).

Tests used:
Format in all cases: cell-based
HCT116 cells = assay: MTT antiproliferative assay, HCT116; details: Homo sapiens, HCT-116, 72 h, read-out: HCT116 IC50
SKBR-3 cells = assay: MTT antiproliferative assay, SKBR-3; details: Homo sapiens, SK-BR-3, 72 h, read-out: SKBR-3 IC50
MCF-7 cells = assay: MTT antiproliferative assay, MCF-7; details: Homo sapiens, MCF7, 72 h, read-out: MCF-7 IC50

- IC50 (HCT116 cells): 11.9 µM
- IC50 (SKBR-3 cells): 1.62 µM
- IC50 (MCF-7 cells): 9.2 µM
SMILES: COc1ccc(C=Cc2cc(NC(=O)c3ccc(C(N)=NO)cc3)cc(OC)c2)cc1 [HERP6, 4-(N'-hydroxycarbamimidoyl)-N-[3-methoxy-5-(4-methoxystyryl)phenyl] benzamide]
